Molecules are shown by their SMILES. “And” between values parts separate entries of the source, which are not always exact repeats. Equal entries are not always repeated. Where two headings read alike, the source gives them in different places.

Here are results for two molecules from patent US11491167B2, “Combination product of Bcl-2 inhibitor and chemotherapeutic agent and use thereof in the prevention and/or treatment of diseases” (ASCENTAGE PHARMA (SUZHOU) CO., LTD., priority 2018, dated 2022).

For experiment [1], the system named is human NCI-H146 (SCLC) mouse xenograft tumor model. The following applies: 5 mice per group; for RTV on day 21 after administration (mean ± standard error) / T/C (%) on day 21 after administration / RTV on day 35 after administration (mean ± standard error) / T/C (%) on day 35 after administration: Compound 6 100 mg/kg p.o. qd; for RTV on day 21 after administration (mean ± standard error) / T/C (%) on day 21 after administration: TPT 1 mg/kg p.o. d1-5/w then d1-3/w; for RTV on day 35 after administration (mean ± standard error) / T/C (%) on day 35 after administration: TPT 1 mg/kg p.o.; for CR (tumor complete regression), mice on day 21 after administration / PR (tumor partial regression), mice on day 21 after administration: Compound 6 100 mg/kg, TPT 1 mg/kg; for CR (tumor complete regression), mice on day 46 after administration / PR (tumor partial regression), mice on day 46 after administration / Tumor remission rate % on day 46 after administration: day 46, observation after discontinuation; for Tumor remission rate % on day 21 after administration / Tumor remission rate % on day 46 after administration: remission including CR, PR and SD. The method, then: A subcutaneous xenograft tumor model of human tumor immunodeficient mice was established by cell inoculation: tumor cells in logarithmic growth phase were collected, counted and resuspended in 1×PBS, and the cell suspension concentration was adjusted to 2.5-5×10^7/mL. Using a 1 mL syringe ([…]), the tumor cells were inoculated subcutaneously in the right side of immunodeficient mice, 5-10×106/0.2 mL/mouse (All animals were purchased from Beijing Vital River Laboratory Animal Technology Co., Ltd. SCXK (Beijing) 2012-0001). All animal experiments were strictly in accordance with the laboratory animal use and management practices of GenePharma Co., Ltd. and Ascentage Pharma Group Co., Ltd. The calculation of relevant parameters referred to the Chinese CFDA “Guidelines for Non-Clinical Research Techniques of Cytotoxic Antitumor Drugs”. The NCI-H146 cells used in the Institute were a gift from Professor Wang Shaomeng of the University of Michigan, USA.
Animal body weight and tumor size were measured twice a week during the experiment. The conditions and death of the animals were observed every day. Routine monitoring included the effects of tumor growth and treatment on normal animal behaviors, including activity, feeding and drinking situations, weight gain or loss, eyes, coat and other abnormalities in the experimental animals. The deaths and clinical symptoms observed during the experiment were recorded in the raw data. The entire operations of administration, measurement of mouse body weight and tumor volume were performed in a clean bench. Plasma and tumor tissues were collected, weighed and photographed after the end of the last administration according to the experimental protocol. Plasma and tumor samples were frozen and stored at −80° C.
Tumor volume (TV) was calculated as: TV=a×b2/2, in which a and b represented the length and width of the tumor as measured, respectively. The relative tumor volume (RTV) was calculated as: RTV=Vt/V1, in which V1 was the tumor volume at the time of grouping and administration, and Vt was the tumor volume measured on a day after administration. […] Change of body weight %=(measured body weight−body weight at the time of grouping)/body weight at the time of grouping×100%.
The synergistic analysis was performed by the following formula 6: synergy factor=((A/C)×(B/C))/(AB/C); A=RTV value of the group administered with A only; B=RTV value of the group administered with B only; C=RTV value of the vehicle control group; AB=RTV value of the group administered with A and B in combination (Clarke R. Issues in experimental design and endpoint analysis in the study of experimental cytotoxic agents in vivo in breast cancer and other models [J]. Breast Cancer Research & Treatment, 1997, 46(2-3): 255-278).
(1) The experimental method was as described in Section (2) of Example 1. In the experiment, the SCLC mouse xenograft tumor model derived from human NCI-H146 tumor cells was established (Gould S E et al. Translational value of mouse models in oncology drug development. Nature medicine. 2015 21, 431-439). When the tumor volume reached 100-200 mm3, randomization was performed according to tumor volume and mouse body weight, and two independent in vivo experiments were performed on the model to evaluate the anti-tumor effects of the combination of Compound 6 and the chemotherapeutic agent TPT (topotecan).
In this experiment, Compound 6 was administered at a dose of 100 mg/kg, p.o., qd; TPT was administered at a dose of 1 mg/kg, p.o., d1-5/w (i.e., a 2-day interval after 5 days of administration).

Experiment [2] concerns NCI-H146 (small cell lung cancer (SCLC)). Briefly: WST (CCK-8) anti-proliferation experiment, topotecan alone or combined with Compound 6. The class given is cell-based. The following applies: Homo sapiens, NCI-H146, 72 h, topotecan alone, read-out: IC50 for proliferation inhibition.

For the molecule `O=C(NS(=O)(=O)c1ccc(NC[C@H]2COCCO2)c([N+](=O)[O-])c1)c1ccc(N2CCN(CC3=C(c4ccc(Cl)cc4)CC4(CCC4)CC3)CC2)cc1Oc1cnc2[nH]ccc2c1` [Compound 6, (S)-N-((4-(((1,4-dioxan-2-yl)methyl)amino)-3-nitrophenyl)sulfonyl)-2-((1H-pyrrolo[2,3-b]pyridin-5-yl)oxy)-4-(4-((6-(4-chlorophenyl)spiro[3.5]non-6-en-7-yl)methyl)piperazin-1-yl)benzamide], in experiment [1], the “RTV on day 21 after administration (mean ± standard error)” value is 2.51 ± 0.25, the “T/C (%) on day 21 after administration” value was 49%, the “RTV on day 35 after administration (mean ± standard error)” value amounted to 4.89 ± 0.39 and the “T/C (%) on day 35 after administration” value is listed as 52%. Besides, in experiment [1], the “CR (tumor complete regression), mice on day 21 after administration” value is 0/5CR, 0/5PR,; the “PR (tumor partial regression), mice on day 21 after administration” value is listed as 0/5CR, 0/5PR,; the “CR (tumor complete regression), mice on day 46 after administration” value is on record as 0/5CR, 0/5PR,; the “PR (tumor partial regression), mice on day 46 after administration” value is 0/5CR, 0/5PR,. In experiment [1], the “Tumor remission rate % on day 21 after administration” value was 0% and the “Tumor remission rate % on day 46 after administration” value turned out to be 0%.
`CC[C@@]1(O)C(=O)OCc2c1cc1n(c2=O)Cc2cc3c(CN(C)C)c(O)ccc3nc2-1` [topotecan]: in experiment [1], the “RTV on day 21 after administration (mean ± standard error)” value came out at 0.26 ± 0.12, the “T/C (%) on day 21 after administration” value is 5%, the “RTV on day 35 after administration (mean ± standard error)” value came out at 0.77 ± 0.35 and the “T/C (%) on day 35 after administration” value is 8%. In addition, in experiment [1], the “CR (tumor complete regression), mice on day 46 after administration” value is listed as 2/5; the “PR (tumor partial regression), mice on day 46 after administration” value was 0/5; the “Tumor remission rate % on day 21 after administration” value is 100%; the “Tumor remission rate % on day 46 after administration” value amounted to 40%. In addition, in experiment [1] (listed as TPT), the “CR (tumor complete regression), mice on day 21 after administration” value is 2 and 2/5; the “PR (tumor partial regression), mice on day 21 after administration” value was 3 and 3/5. In addition, the IC50 in experiment [2] (NCI-H146 (SCLC), first experiment) stood at 0.127 µM. Moreover, the IC50 in experiment [2] (another NCI-H146 (SCLC) experiment) is 0.068 µM.
